Test results taken from US5308867A, “Platelet activating factor antagonists, named "the phomactins", their preparation and use” (Sankyo Company, Limited, priority 1988, dated 1994).

How the values were obtained:
platelet aggregation = test: Antiplatelet aggregation test in rabbit platelet-rich plasma, synthetic C16:0 PAF-induced (method of Born et al.); type: cell-based; conditions: platelet count 6×10^5 /μl, C16:0 PAF final 1×10^-8 -3×10^-8 M; for IC50: Oryctolagus cuniculus, read-out: IC50 (concentration necessary to inhibit aggregation by 50%)
Protocol: The following antiplatelet aggregation test was performed, using the phomactin A thus obtained.
Blood was drawn from a rabbit heart and immediately mixed with nine times its volume of a 3.8% w/v aqueous solution of sodium citrate. A platelet-rich plasma (PRP) was then obtained as a supernatant by centrifugation of the blood mixture at 150×g for 15 minutes at room temperature. The precipitated fraction remaining from the blood mixture was then centrifuged for a further 15 minutes at 10,000×g to obtain a platelet-poor plasma (PPP) as a supernatant. Appropriate proportions of the PRP and the PPP were mixed to obtain a plasma having a platelet count of 6×10^5 /μl.
Platelet aggregation was determined by the method of Born et al. [Nature, 194, 927-929 (1962)] where an increase in light transmission through the test sample is measured by means of an aggregometer.
The aggregation resulting from the addition of the PAF alone, without the prior addition of the test compound, was taken as 100%.
Instead of the test solution, physiological saline was added and the aggregation at one minutes after the addition of C16 -PAF was used as the control.

Solubility = type: physicochemical; conditions: for Solubility in organic solvents: methanol, ethanol, acetone, ethyl acetate, chloroform, dimethyl sulfoxide, benzene and diethyl ether
[1] = tested on: arrhythmias evoked by ligation of left anterior descending coronary artery; conditions: cited from earlier work
[2] = tested on: infarct size after coronary artery ligation; conditions: 5 mg kg^-1 i.v. immediately before occlusion, after 24 h of occlusion, rats, cited from earlier work

Row | IC50 (platelet aggregation) [µM] | Solubility in water (Solubility) | Structure (SMILES) | Solubility in organic solvents (Solubility) | inhibition of platelet aggregation (platelet aggregation; at a concentration of 10 g/ml (so in the source)) | number of ectopic beats during the 30 min ischemic period (in words) ([1]; 5 mg kg^-1, 15 min before coronary artery occlusion, mongrel dogs) | Number of ectopic beats, 5-10 min of ischemia, mean ± SEM ([1]; 5 mg kg^-1 i.v. bolus 15 min before ligation, 5-10 min, dogs, p < 0.05 (Wilcoxon)) | Number of ectopic beats, 10-15 min of ischemia, mean ± SEM ([1]; 5 mg kg^-1 i.v. bolus 15 min before ligation, 10-15 min, dogs, p < 0.05 (Wilcoxon)) | Number of ectopic beats, 15-20 min of ischemia, mean ± SEM ([1]; 5 mg kg^-1 i.v. bolus 15 min before ligation, 15-20 min, dogs, p < 0.05 (Wilcoxon)) | Number of ectopic beats, 20-25 min of ischemia, mean ± SEM ([1]; 5 mg kg^-1 i.v. bolus 15 min before ligation, 20-25 min, dogs, p < 0.05 (Wilcoxon)) | Number of ectopic beats, 25-30 min of ischemia, mean ± SEM ([1]; 5 mg kg^-1 i.v. bolus 15 min before ligation, 25-30 min, dogs, p < 0.05 (Wilcoxon)) | infarct size ([2]; control 26±2.2%, p<0.05) | infarct size (in words) ([2]; preliminary studies)
1 | 17 | insoluble in water | CC1=CCCC2(C)OC2C(=O)C2=CC(O)C(C)C(C)(CC1)C2(C)O (stereo not drawn) [Phomactin B, 13,15-dihydroxy-3,4-epoxy-2-oxo-4,8,11,12,15-pentamethylbicycl[9.3.1]pentadeca-7,14-diene] | Soluble in methanol, ethanol, acetone, ethyl acetate, chloroform, dimethyl sulfoxide, benzene and diethyl ether |  |  |  |  |  |  |  |  | 
2 | 17 | insoluble in water | CC1=CCCC2(C)OC3CC(C)C(C)(CC1)C1=C3C(O)(OC1)C2O (stereo not drawn) [Phomactin A, 3,3a-dihydroxy-2,6-(3'-methyl-3'-hexeno)-2,6,7-trimethyl-3a,5,6,7,8,8a-hexanhydrofuro[2,3,4-de]chroman] | Soluble in methanol, ethanol, acetone, ethyl acetate, chloroform, dimethyl sulfoxide, benzene and diethyl ether | about 91.7% |  |  |  |  |  |  |  | 
3 |  |  | CC1C(=O)OC2C(O)C34C5CC(C(C)(C)C)C36C(OC(=O)C6O)OC4(C(=O)O5)C12O (stereo not drawn) [BN-52021] |  |  | significantly reduced the number of ectopic beats | 10 ± 5.4 | 10 ± 5.3 | 15 ± 6.3 | 55 ± 28.6 | 98 ± 39.0 | 17±1.8 % of heart tissue | significantly reduced the infarct size
